In brackets after ≈: the same amount, converted by molar mass. Read-outs that look alike come from different tables or passages of the source. Each block holds one molecule with its values, some of them ahead of it.
How the values were obtained:
[1] = tested on: MCF-7 (human breast cancer cells); assay: In vitro cytotoxic activity, MTT assay; assay type: cell-based; details: read-out: IC50 MCF-7
Method: (§1) In vitro cytotoxic activity of 3c was evaluated using MTT (3-(4,5)-dimethylthi ahiazo (-2)-3,5-diphenytetrazoliiumromide) assay using WI-38 (Human embryonic lung fibroblasts), MCF-7 (human breast cancer cells) and HepG2 (human liver carcinoma cells). Harmine was used as a control.
(§2) The in vitro cytotoxicity of 3c was determined using MTT assay. WI-38 (Human embryonic lung fibroblasts), MCF-7 (Human breast cancer cells) and HepG2 (human liver carcinoma cells) were purchased from American Type Culture Collection (Manassas, VA, USA). The cells were maintained using Dulbecco’s modified eagle’s medium (DMEM, Sangon Biotech, Shanghai, China) supplemented with 10% fetal bovine serum (FBS, Sijiqing Bioengineering Material Co., Ltd., Hangzhou, China), 100 U/mL penicillin and 100 μg/mL streptomycin in a humidified 37 °C incubator under 5% CO2. 100 μL culture medium at a concentration of 1 × 10^4 cells/mL was added to 96-well plate and incubated in a humidified 37 °C incubator under 5% CO2. After 24 h, 10 µL solution of 3c and harmine dissolved in DMSO and PBS and then diluted with DMEM under a concentration gradient, which was added in the wells for final concentrations of 1000, 500, 250, 125, 62.5 µmol/L of compounds in WI-38 and 160, 80, 40, 20, 10 µmol/L of compounds in MCF-7 and Hep-G2. After 48 h incubation, 10 μL MTT solution (5 mg/mL) was added into each well and incubated in a humidified 37 °C incubator under 5% CO2. After 4 h, the supernatant was removed and 150 μL DMSO was added. The absorbance of each well was determined by an enzyme-linked immunosorbent assay reader (Thermo Fisher Scientific Inc., Rochester, NY, USA) at wavelengths of 570 nm. The experiments were performed in triplicate.

[2] = tested on: WI-38 (Human embryonic lung fibroblasts); assay: In vitro cytotoxic activity, MTT assay; assay type: cell-based; details: read-out: IC50 WI-38
Method: as §1, §2

[3] = tested on: HepG2 (human liver carcinoma cells); assay: In vitro cytotoxic activity, MTT assay; assay type: cell-based; details: read-out: IC50 HepG2
Method: as §1, §2

S. aureus (CICC 10384) = assay: Bactericidal time-kill kinetics; assay type: cell-based, Staphylococcus aureus
Method: The bacteria S. aureus was prepared in Muellere Hinton broth at 37 °C for 6 h with shaking. The solution of 3c (1 × MIC and 6 × MIC), 5a (1 × MIC and 6 × MIC), harmine (1 × MIC and 6 × MIC) and saline (served as a control group) were separately added to the bacterial suspension so that the final bacterial concentration were 10^6~10^7 CFU/mL. At the predetermined time point (0, 0.5, 2, 4, 6, 12 and 24 h), […] of aliquots were serially diluted in normal saline, plated on sterile Muellere Hinton agar plates, and incubated at 37 °C for 24 h. After incubation, the viable colonies were counted and represented as log10 (CFU/mL). The same procedure was repeated in triplicate.
Figure 3 Time-kill kinetics of compound 3c (A) and 5a (B) at 1 × and 6 × MIC against S. aureus (CICC 10384).

[4] = tested on: methicillinresistant Staphylococcus aureus ATCC 43300 (MRSA); assay: MIC, microplate dilution method; assay type: cell-based; details: read-out: MIC MRSA
Source text: (§3) According to microplate dilution method, all the prepared compounds were screened for their in vitro antibacterial activity. The investigation included three representative Gram-positive strains, including Staphylococcus aureus CICC 10384 (S. aureus), Staphylococcus albus CICC 20237 (S. albus) and methicillinresistant Staphylococcus aureus ATCC 43300 (MRSA), and two representative Gram-negative strains, including Escherichia coli CICC 10389 (E. coli) and Pseudomonas aeruginosa CVCC 3359 (PA). Harmine and cinnamic acid were used as reference drugs.
(§4) The antibacterial efficiency of all prepared compounds was determined using the microplate dilution method. All compounds were prepared into different concentrations of stock solution according to their solubility. The compounds were added to the 96 well plate and serially diluted in Mueller-Hinton broth. Three Gram-positive strains (S. aureus, S. albus and MRSA) and two Gram-negative strains (E. coli and PA) were cultivated and added to the 96 well plate. The initial concentration of bacteria should be higher than 10^5 CFU/mL. The samples were incubated at 37 °C for 18–24 h. The MIC was determined for compounds by observing change of clarity in the broth. The same procedure was repeated in triplicate.

[5] = tested on: Pseudomonas aeruginosa CVCC 3359 (PA); assay: MIC, microplate dilution method; assay type: cell-based; details: read-out: MIC PA
Source text: as §3, §4

[6] = tested on: Staphylococcus aureus CICC 10384 (S. aureus); assay: MIC, microplate dilution method; assay type: cell-based; details: read-out: MIC S. aureus
Source text: as §3, §4

[7] = tested on: Escherichia coli CICC 10389 (E. coli); assay: MIC, microplate dilution method; assay type: cell-based; details: read-out: MIC E. coli
Source text: as §3, §4

[8] = tested on: Staphylococcus albus CICC 20237 (S. albus); assay: MIC, microplate dilution method; assay type: cell-based; details: read-out: MIC S. albus
Source text: as §3, §4

[9] = In vivo pharmacokinetic study in rats; details: both sexes, Sprague-Dawley, plasma, rat
Method: Adult males and females Sprague Dawley rats, with average weight of 200–250 g, were purchased from the Experiment Animal Center of Lanzhou University (Lanzhou, China). The rats were housed under an environmentally controlled room for one week before staring the experiment. All procedures were performed according to the guidelines issued by the Ethical Committee of Lanzhou University (Permit Number: SYXK(Gan)-2018-0002).
After 7 days acclimatization, rats were randomly divided into two groups with half male and half female in each group (n = 6). All animals were fasted for 12 h with access to water prior to dosing. One group was intravenously administered with 3c at dose of 10 mg/kg. Another group was oral administered with 3c at dose of 40 mg/kg. Approximately 0.3 mL of blood samples were collected into heparinized tubes from the orbital vein at 0.083, 0.25, 0.5, 0.75, 1, 2, 4, 8, 12 and 24 h after the administration. The heparinized blood samples were immediately centrifuged at 4000 rpm for 10 min and the upper plasma was separated and immediately stored at −20 °C used for UPLC-MS/MS analysis.
Plasma samples were processed as follows. First, 100 μL of plasma samples and 50 μL of tinidazole (1000 ng/mL, internal standard) were mixed by vortex for 1 min. Next, 250 μL of acetonitrile were added to the mixture and vortexed for 10 min. After centrifugation at 10,000 rpm for 10 min, 200 μL of the upper organic layer were removed into 1.5 mL centrifuge tube and dried with nitrogen. Finally, the residue was reconstituted in 100 μL of 50% acetonitrile, vortexed for 1 min, centrifuged at 10,000 rpm for 10 min, and then the supernatant was used for UPLC-MS/MS analysis.
The obtained data were analyzed using a non-compartment open model with PKsolver Software. Pharmacokinetic parameters and the experiment data were expressed as the mean ± standard deviation (SD). A paired student’s t-test was used for statistical analysis, with p < 0.05 considered the minimum level of significance.

[10] = Gram-positive, Mueller-Hinton broth, 37 °C, 18–24 h
[11] = Gram-negative, Mueller-Hinton broth, 37 °C, 18–24 h
[12] = iv, i.v. 10 mg/kg, single dose, n = 6, Mean ± SD
[13] = po, i.g. 40 mg/kg, single dose, n = 6, Mean ± SD

melting point: 128.6 to 129.3 °C | MIC [4, 10]: 54.7 µg/mL (≈ 123 µM) | MIC [5, 11]: 219 µg/mL (≈ 491 µM) | MIC [6, 10]: 13.7 µg/mL (≈ 30.7 µM) | MIC [7, 11]: 219 µg/mL (≈ 491 µM) | MIC [8, 10]: 13.7 µg/mL (≈ 30.7 µM) | AUC(0-inf) [9, 12]: 1050 ± 231 ng·h/mL | AUC(0-t) [9, 12]: 1050 ± 229 ng·h/mL | Cmax [9, 12]: 837 ± 229 ng/mL | MRT [9, 12]: 2.86 ± 0.71 h | Tmax [9, 12]: 0.083 ± 0.03 h | half-life [9, 12]: 2.27 ± 0.62 h | bioavailability ([9]; oral, i.g. 40 mg/kg vs i.v. 10 mg/kg, from AUC0→∞): 6.9% | AUC(0-inf) [9, 13]: 290 ± 55.2 ng·h/mL | AUC(0-t) [9, 13]: 284 ± 54.4 ng·h/mL | CL/F [9, 13]: 4.33 mL/min/kg | Cmax [9, 13]: 159 ± 59.6 ng/mL | MRT [9, 13]: 3.33 ± 0.83 h | Tmax [9, 13]: 0.25 ± 0.033 h | half-life [9, 13]: 1.3 ± 0.47 h
SMILES: COc1ccc2c3ccnc(C)c3n(CCCOC(=O)/C=C/c3ccccc3[N+](=O)[O-])c2c1 [Compound 3c, 4-(7-Methoxy-1-methyl-9H-pyridine [3,4-b]indole-9-yl) propyl(E)-3-(2-nitrophenyl) acrylate]
IC50 ([1]; MCF7, MTT, 48 h incubation, n = 3, Mean ± SD): 94.9 ± 3.64 µM | IC50 ([2]; WI-38, MTT, 48 h incubation, n = 3, Mean ± SD): 340.3 ± 2.79 µM | IC50 ([3]; HepG2, MTT, 48 h incubation, n = 3, Mean ± SD): 161.7 ± 1.31 µM | time to 4-log10 reduction (S. aureus (CICC 10384); 1 × MIC): about 4 h | time to completely kill the bacteria (S. aureus (CICC 10384); 6 × MIC): ≤ 0.5 h

SMILES: COc1ccc2c(c1)[nH]c1c(C)nccc12 [Harmine, 7-methoxy-1-methyl-9H-pyridine [3,4-b] indole]
IC50 ([1]; MCF7, 48 h): 78.9 ± 2.82 µM | IC50 ([2]; WI-38, 48 h): 103.4 ± 0.96 µM | IC50 ([3]; HepG2, 48 h): 67.6 ± 1.6 µM | time-kill effect in words (S. aureus (CICC 10384); 1 × MIC): just slowed bacterial propagation | time to 4-log10 reduction (S. aureus (CICC 10384); 6 × MIC): about 24 h | MIC [4]: 62.5 µg/mL (≈ 294 µM) | MIC [5]: 15.6 µg/mL (≈ 73.6 µM) | MIC [6]: 31.2 µg/mL (≈ 147 µM) | MIC [7]: 15.6 µg/mL (≈ 73.6 µM) | MIC [8]: 15.6 µg/mL (≈ 73.6 µM)

Reference: paper PMC8400480, “Synthesis, Antibacterial and Pharmacokinetic Evaluation of Novel Derivatives of Harmine N^9-Cinnamic Acid” (Molecules, 2021)
